Results as given in patent US8143245B2 (Pierre Fabre Medicament, priority 2006, dated 2012).
Marks after values point to notes of the source that are not given here. Blank lines part the entries; values can stand above or below the compound they belong to.

Tests used:
salivation = conditions: preclinical animal studies; cited from earlier work
[1] = target: T1, human M1 muscarinic receptor (Homo sapiens, UniProt P11229); experiment: V0162 receptor binding in vitro, CHO cells transfected with human M1, tritiated pirenzepine; conditions: M1(h)
T1 sequence (P11229 1-460): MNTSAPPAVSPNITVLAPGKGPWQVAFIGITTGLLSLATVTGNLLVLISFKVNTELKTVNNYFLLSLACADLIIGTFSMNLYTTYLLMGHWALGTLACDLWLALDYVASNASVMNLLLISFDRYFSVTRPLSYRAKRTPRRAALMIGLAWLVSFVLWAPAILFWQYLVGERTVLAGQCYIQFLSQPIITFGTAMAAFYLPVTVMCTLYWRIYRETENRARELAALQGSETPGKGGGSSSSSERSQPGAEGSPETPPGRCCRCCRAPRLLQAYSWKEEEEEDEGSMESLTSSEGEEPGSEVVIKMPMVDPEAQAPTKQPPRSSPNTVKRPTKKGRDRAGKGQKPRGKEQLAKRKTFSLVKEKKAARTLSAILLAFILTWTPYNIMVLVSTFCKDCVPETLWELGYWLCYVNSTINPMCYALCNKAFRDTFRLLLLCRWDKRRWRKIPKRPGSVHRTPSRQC
Source text: (§1) The purpose of this study is to determine an affinity constant for the compound with respect to the three classes of human muscarinic receptors in vitro. The model chosen is the CHO cell stably transfected with cDNAs coding for each of the three human muscarinic receptors. […] Binding with respect to the receptors is defined as follows: the difference between overall binding and non-specific binding determined in the presence of excess cold ligand. The results are expressed as a percentage of the optimal binding obtained with the model ligand (100%). […] The inhibition constants (Ki) were calculated by means of the Cheng Prusoff equation (Ki=IC50/(1+L/KD)); where L is the radioligand concentration and KD the affinity of the radioligand for the receptor.

[2] = test system: pilocarpine-induced sialorrhea in the rat; experiment: Pilocarpine-induced sialorrhea, inhibition of salivary secretion after p.o. administration; format: in vivo
Procedure: For the purpose of evaluating anticholinergic activity in the validated model of pilocarpine-induced sialorrhea in the rat, groups of animals were fasted and the next day the products were administered orally 90 minutes before intra-peritoneal injection of pilocarpine (0.5 mg.kg^-1). The compounds tested were administered in doses of 2.5, 5 and 10 mg.kg^-1. […] The animals were anaesthetized and then the salivary secretion was collected for 60 minutes, every ten minutes. The samples were then dried and weighed.

[3] = target: T2, human M3 muscarinic receptor (Homo sapiens, UniProt P20309); experiment: V0162 receptor binding in vitro, CHO cells transfected with human M3, 4-DAMP; conditions: M3 (h)
T2 construct: expressed in transfected cells; host or cells: CHO cells, stably transfected
T2 sequence (P20309 whole entry): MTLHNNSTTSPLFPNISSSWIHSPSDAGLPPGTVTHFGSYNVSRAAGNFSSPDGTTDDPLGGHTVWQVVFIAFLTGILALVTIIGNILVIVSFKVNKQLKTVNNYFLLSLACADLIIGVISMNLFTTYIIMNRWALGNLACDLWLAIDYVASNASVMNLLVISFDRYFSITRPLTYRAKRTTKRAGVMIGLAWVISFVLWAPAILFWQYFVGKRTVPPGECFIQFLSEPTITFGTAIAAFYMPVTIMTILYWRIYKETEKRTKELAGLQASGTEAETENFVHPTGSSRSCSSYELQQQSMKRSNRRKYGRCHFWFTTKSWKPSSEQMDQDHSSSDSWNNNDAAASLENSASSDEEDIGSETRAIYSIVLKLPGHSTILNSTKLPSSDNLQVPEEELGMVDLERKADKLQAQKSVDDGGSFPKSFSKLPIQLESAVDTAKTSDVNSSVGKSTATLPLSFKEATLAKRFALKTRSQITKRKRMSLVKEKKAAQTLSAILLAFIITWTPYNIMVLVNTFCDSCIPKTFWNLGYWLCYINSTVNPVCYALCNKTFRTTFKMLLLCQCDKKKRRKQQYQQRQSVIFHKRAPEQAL
Source text: as §1

[4] = Transmucosal passage: repeated nasal administration of V0162 suspension, circulating level and tolerance; format: in vivo, rabbit; conditions: for Level of V0162: rabbit plasma, nasal 0.4% suspension twice per day
Procedure: 48 rabbits were treated nasally daily for 28 days with a suspension titrated at 0.4% mass/volume. […] Each group was made up of males and females equally. Nasal administration of the suspension was carried out twice per day for 28 days. Plasma samples were taken on D1, D2, D7, D28, D35. The samples were analyzed by an LC/MS/MS method validated by assay of V0162.

[5] = Anticholinergic activity in vivo by intravenous administration
[6] = test system: explants taken from the guinea pig (contractions induced by acetylcholine); experiment: Anticholinergic effect ex vivo, contractions induced by acetylcholine in explants; conditions: for Response to Acetylcholine Max. Response (%): test curve, mean ± sem, n = 6
Procedure: The purpose of these experiments was to confirm the anticholinergic activity of […] on a living organ. In order to do so, explants taken from the guinea pig were kept alive. The morphology of the preparations was homogeneous from batch to batch. Each explant was placed in a survival chamber and immersed in a physiological solution of composition (mM): NaCl (118); KCl (4.7); […] CaCl2 (2.5); […] NaHCO3 (25); glucose (11), at a temperature of 37° C. and with a pH of 7.4. Before the test, the following agents were dispersed in the survival buffer in order to block non-specific responses to acetylcholine: […] (10^-6 M) to block β2-adrenergic responses; cimetidine (10^-5 M) to block type 2 histaminergic responses; methysergide (10^-6 M) to block serotoninergic responses and indomethacine (3×10^-6 M) to prevent the appearance of muscle tonus due to a release of prostaglandins by the preparation itself. At the time of acquisition, the tissues were connected to […] in order to continuously record the variations in tension. After 60 minutes of calibration of the preparations, the tissues were exposed to variable concentrations of […]. The contractions induced by acetylcholine as dose responses were carried out in order to determine the response of the preparation to the stimulation in the absence of the putative inhibitor.

[7] = test system: increase in intravesical pressure induced by bethanechol; experiment: Intravesical pressure (cystomanometry) after bethanechol; format: in vivo; conditions: compared to oxybutyrine
Procedure: The objective of this study was to measure intravesical pressure and salivation, in the animal, for the purpose of testing the uroselectivity of the anti-muscarinics, when they are administered orally and vaginally. In order to evaluate intravesical pressure, the bladders of the animals were catheterized in order to make possible recording (cystomanometry: continuous recording of the vesical pressure). The products to be tested were administered either per os at a dose of 5 mg.Kg^-1 or by local application of a suspension of […] at 0.4% in a vehicle with a base of cyclodextrin and arginine. The jugular vein was also cannulated in order to administer a muscarinic agonist: bethanechol (200 μg/kg, iv). At each administration of bethanechol, the variation of vesical pressure (ΔPV, mmHg) and the quantity of saliva (mg) were evaluated and quantified. The positive control was made up of a group of animals treated with oxybutyrine (Ditropan®; 10, 100 and 1000 μg/kg, iv).

[8] = test system: M3 muscarinic receptors versus M2 muscarinic receptors; conditions: cited from earlier work
[9] = p.o. 5 mg·kg^−1, comparison of racemic mixture and enantiomers (Table 4)
[10] = p.o. 2.5 mg·kg^−1, 90 min before pilocarpine
[11] = p.o. 10 mg·kg^−1, 90 min before pilocarpine

Structure (SMILES): CCN(CC)CC#CCOC(=O)C(O)(c1ccccc1)C1CCCCC1 (centres unmarked) [oxybutynine]
Effect on salivation (salivation): reduce salivation

nH (Hill coefficient) [1]: 0.8 | nH (Hill coefficient) [3]: 1.2
Structure (SMILES): c1ccc2c(c1)Sc1ccccc1N2CC1CN2CCC1CC2 (racemic) [10-[(3R,3S)-1-azabicyclo[2.2.2]oct-3-ylmethyl]-10H-phenothiazine, reference compound]
Inhibition (%) [2, 9]: 73* %

Structure (SMILES): c1ccc2c(c1)Sc1ccccc1N2C[C@H]1CN2CCC1CC2 [V0162, 10-[(3R)-1-azabicyclo[2.2.2]oct-3-ylmethyl]-10H-phenothiazine]
Level of V0162 ([4]; Day 1/4 hours after administration): 0.88 ng/mL | Level of V0162 ([4]; Day 1/before administration): BLQ | Level of V0162 ([4]; Day 2/before administration): 0.22 ng/mL | Level of V0162 ([4]; Day 7/before administration): 0.41 ng/mL | Level of V0162 ([4]; Day 28/4 hours after administration): 1.35 ng/mL | Level of V0162 ([4]; Day 28/24 hours after administration): 0.23 ng/mL | Level of V0162 ([4]; Day 35/before administration): BLQ | Toxic effects (histological plane, respiratory rhythm, heart rate, behaviour) ([4]; rabbit, in vivo): do not lead to toxic effects | Effects on the nasal mucosa ([4]; rabbit, nasal 0.4% suspension twice per day for 28 days): does not induce deleterious effects on the nasal mucosa | Circulating level ([4]; rabbit, nasal administration of a suspension): ~4 nM | Anticholinergic activity in vivo [5]: anticholinergic by intravenous administration | Response to Acetylcholine Max. Response (%) ([6]; V0162 30 nM): 98 ± 1% | Response to Acetylcholine Max. Response (%) ([6]; V0162 100 nM): 98 ± 1% | Response to Acetylcholine Max. Response (%) ([6]; V0162 300 nM): 98 ± 1% | Mode of action towards acetylcholine ([6]; ex vivo model): behaves like an antagonistic competitor of acetylcholine | Increase in intravesical pressure induced by bethanecol ([7]; local application of 0.4% suspension, bethanechol 200 μg/kg iv): significantly reduces the increase in intravesical pressure | Increase in intravesical pressure induced by bethanecol ([7]; per os 5 mg.Kg^−1, bethanechol 200 μg/kg iv): significantly reduces the increase in intravesical pressure | Inhibition (%) [2, 10]: 29% | Secretion [2, 10]: 735.6 mg | Secretion ([2]; p.o. 5 mg·kg^−1, 90 min before pilocarpine): 338.9 mg | Inhibition (%) ([2]; p.o. 5 mg·kg^−1, 90 min before pilocarpine (Table 3)): 67* % | Inhibition (%) [2, 9]: 77* % | Inhibition (%) [2, 11]: 95* % | Secretion [2, 11]: 45.1 mg

Structure (SMILES): NC(=O)C(c1ccccc1)(c1ccccc1)[C@@H]1CCN(CCc2ccc3c(c2)CCO3)C1 [darifenacine]
Effect on salivation (salivation): reduce salivation | Affinity for M3 muscarinic receptors higher than for M2 muscarinic receptors [8]: 7 times | Selectivity between M3 and M2 receptor [8]: more selective with respect to the M3 receptor than with respect to the M2

Structure (SMILES): CN1[C@@H]2CC[C@H]1C[C@@H](OC(=O)C(CO)c1ccccc1)C2 (some centres unmarked) [Atropine, reference compound]
Inhibition (%) ([2]; 1 mg·kg^−1, positive control): 98* %

Structure (SMILES): Cc1ccc(O)c([C@H](CCN(C(C)C)C(C)C)c2ccccc2)c1 [tolterodine]
Effect on salivation (salivation): reduces salivation less | Selectivity between M3 and M2 receptor [8]: more specific for the M2 receptor than for the M3 receptor

nH (Hill coefficient) [1]: 1.1 | nH (Hill coefficient) [3]: 1.0
Structure (SMILES): c1ccc2c(c1)Sc1ccccc1N2C[C@@H]1CN2CCC1CC2 [10-[(3S)-1-azabicyclo[2.2.2]oct-3-ylmethyl]-10H-phenothiazine, reference compound]
Anticholinergic activity in vivo [5]: does not demonstrate clear activity | Inhibition (%) [2, 9]: −4%
